Here are results for 15 compounds from US20110098269A1, “Substituted Pyridazinone Derivatives as Histamine-3 (H3) Receptor Ligands” (Cephalon, Inc., priority 2008, published 2011).

In one data set the target is T1, human H3 receptor (Homo sapiens, UniProt Q9Y5N1).
T1 construct: expressed in transfected cells
Description: Human H3 radioligand binding ([3H]-N-alpha-methylhistamine, CHO cell membranes). The note with it: Human H3 binding constant, class symbols; read-out: hH3 Ki. On the procedure: (§1) Methods: CHO cells stably expressing the human H3 receptor (GenBank: NM_007232) were harvested and cell pellets were frozen (−80° C.). Cell pellets were resuspended in 5 mM Tris-HCl, pH 7.5 with 5 nM EDTA and a cocktail of protease inhibitors (Complete Protease Inhibitor Tablets, Roche Diagnostics). Cells were disrupted using a polytron cell homogenizer and the suspension was centrifuged at 1000×g for 10 minutes at 4° C. The pellet was discarded and the supernatant centrifuged at 40,000×g for 30 min at 4° C. This membrane pellet was washed in membrane buffer containing 50 mM Tris-HCl, pH 7.5 with 0.6 mM EDTA, 5 mM MgCl2 and protease inhibitors, recentrifuged as above and the final pellet resuspended in membrane buffer plus 250 mM sucrose and frozen at −80° C.
(§2) Radioligand Binding. Membranes were resuspended in 50 mM Tris HCl (pH 7.4), 5 mM MgCl2, 0.1% BSA. The membrane suspensions (10 μg protein per well) were incubated in a 96 well microtiter plate with [^3H]-N-alpha-methylhistamine (approximately 1 nM final concentration), test compounds at various concentrations (0.01 nM-30 μM) and scintillation proximity beads (Perkin Elmer, FlashBlueGPCR Scintillating Beads) in a final volume of 80 μl for 4 hours at room temperature, protected from light. Non-specific binding was determined in the presence of 10 μM clobenpropit. Radioligand bound to receptor, and therefore in proximity to the scintillation beads, was measured using a MicroBeta scintillation counter.

Data set [1] has as its target T2, rat histamine H3 receptor (Rattus norvegicus, UniProt Q9QYN8).
T2 construct: encoding the entire 445-amino-acid rat histamine H3 receptor; expressed in transfected cells
Description: Rat H3 radioligand binding ([3H]-N-alpha-methylhistamine, CHO-A3 cell membranes). As to conditions: Rat H3 binding constant, class symbols; read-out: rH3 Ki.
From the text: as §1, with “Cell line development and membrane preparation. The rat” for “Methods: CHO cells stably expressing the human”, “cDNA was PCR amplified from reverse-transcribed RNA pooled from rat thalamus, hypothalamus, striatum and prefrontal cortex with a sequence corresponding to by #338-1672 of Genbank file #NM_053506, encoding the entire 445-amino-acid rat histamine H3 receptor. This was engineered into the pIRES-neo3 mammalian expression vector, which was stably transfected into the CHO-A3 cell line (Euroscreen, Belgium), followed by clonal selection by limiting dilution. Cells” for “(GenBank: NM_007232)”
as §2

One may read the Ki as the equilibrium dissociation constant of an inhibitor or competing ligand from its target. In general, melting point refers to the temperature of the solid-liquid transition.

T2 sequence (Q9QYN8 whole entry): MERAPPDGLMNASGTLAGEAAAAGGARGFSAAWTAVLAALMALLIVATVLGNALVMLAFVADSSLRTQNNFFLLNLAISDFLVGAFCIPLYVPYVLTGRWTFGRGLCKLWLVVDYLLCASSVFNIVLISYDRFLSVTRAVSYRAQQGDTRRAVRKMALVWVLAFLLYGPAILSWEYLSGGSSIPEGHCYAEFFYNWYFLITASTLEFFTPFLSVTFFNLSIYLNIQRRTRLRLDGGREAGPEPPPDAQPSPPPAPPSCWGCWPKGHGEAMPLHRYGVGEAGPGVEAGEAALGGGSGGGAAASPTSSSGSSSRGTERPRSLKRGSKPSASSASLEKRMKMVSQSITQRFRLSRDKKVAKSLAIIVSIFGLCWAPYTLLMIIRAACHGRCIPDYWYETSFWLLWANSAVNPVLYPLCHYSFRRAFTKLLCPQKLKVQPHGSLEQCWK
T1 sequence (Q9Y5N1 whole entry): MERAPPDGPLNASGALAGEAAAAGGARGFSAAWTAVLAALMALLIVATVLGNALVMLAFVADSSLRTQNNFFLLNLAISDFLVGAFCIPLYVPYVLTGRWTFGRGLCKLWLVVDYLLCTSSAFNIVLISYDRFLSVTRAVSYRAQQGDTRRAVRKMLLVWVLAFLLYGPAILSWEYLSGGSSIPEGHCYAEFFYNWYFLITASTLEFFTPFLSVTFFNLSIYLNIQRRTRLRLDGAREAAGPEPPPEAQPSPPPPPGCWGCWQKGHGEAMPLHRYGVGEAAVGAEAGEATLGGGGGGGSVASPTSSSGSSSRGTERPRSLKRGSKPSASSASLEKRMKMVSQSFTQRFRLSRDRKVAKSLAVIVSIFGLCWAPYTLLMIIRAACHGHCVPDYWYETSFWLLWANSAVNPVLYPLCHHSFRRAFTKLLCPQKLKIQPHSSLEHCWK

As for `CC(C)n1nc(-c2ccc(Oc3ccc4c(c3)CCN(C3CCC3)CC4)nc2)ccc1=O` [Example 29, 6-[6-(3-Cyclobutyl-2,3,4,5-tetrahydro-1H-benzo[d]azepin-7-yloxy)-pyridin-3-yl]-2-isopropyl-2H-pyridazin-3-one], the melting point lay within 70 to 73 °C. On human H3 receptor, the Ki is under 100 nM. In addition, in data set [1], the Ki was under 100 nM.
In turn, `CC(C)N1CCc2ccc(C3=NN(C(C)C)C(=O)CC3)cc2CC1` [Example 6, 2-Isopropyl-6-(3-isopropyl-2,3,4,5-tetrahydro-1H-benzo[d]azepin-7-yl)-4,5-dihydro-2H-pyridazin-3-one] came in with a melting point of 125 to 126 °C. The Ki at human H3 receptor fell in the range of 100 to 1000 nM. In addition, the Ki in data set [1] was in the range of 100 to 1000 nM.
`CC(C)N1N=C(c2ccc3c(c2)CCN(C2CCC2)CC3)CCC1=O` [Example 4, 6-(3-Cyclobutyl-2,3,4,5-tetrahydro-1H-benzo[d]azepin-7-yl)-2-isopropyl-4,5-dihydro-2H-pyridazin-3-one] displayed a melting point of 140 to 141 °C. Further, the Ki at human H3 receptor was under 100 nM. Moreover, in data set [1], the Ki lay within 100 to 1000 nM.
The compound `CC(C)Cn1nc(-c2ccc3c(c2)CCN(C2CCC2)CC3)ccc1=O` [Example 16, 6-(3-Cyclobutyl-2,3,4,5-tetrahydro-1H-benzo[d]azepin-7-yl)-2-isobutyl-2H-pyridazin-3-one] yielded a melting point of 245 to 246 °C. The Ki at human H3 receptor is under 100 nM. Moreover, in data set [1], the Ki lay in the range of 100 to 1000 nM.
For `CC(C)N1CCN(C(=O)c2ccc(-c3ccc(=O)n(C)n3)cc2)CC1` [Example 47, 6-[4-(4-Isopropyl-piperazine-1-carbonyl)-phenyl]-2-methyl-2H-pyridazin-3-one], in that order: 131 to 132 °C, 100 to 1000 nM and 100 to 1000 nM.
For `CS(=O)(=O)c1ccc(-n2nc(-c3ccc4c(c3)CCN(C3CCC3)CC4)ccc2=O)cc1` [Example 25, 6-(3-Cyclobutyl-2,3,4,5-tetrahydro-1H-benzo[d]azepin-7-yl)-2-(4-methanesulfonyl-phenyl)-2H-pyridazin-3-one], in that order: 225 °C, under 100 nM and 100 to 1000 nM.
For `C[C@@H]1CCCN1CCc1ccc(-c2ccc(=O)[nH]n2)cc1` [Example 51, 6-{4-[2-((R)-2-Methyl-pyrrolidin-1-yl)-ethyl]-phenyl}-2H-pyridazin-3-one], in that order: 159 to 161 °C, under 100 nM and under 100 nM.
`O=C1CCC(c2ccc3c(c2)CCN(C2CCC2)CC3)=NN1` [Example 9, 6-(3-Cyclobutyl-2,3,4,5-tetrahydro-1H-benzo[d]azepin-7-yl)-4,5-dihydro-2H-pyridazin-3-one] yielded a melting point of 178 to 179 °C. Further, the Ki at human H3 receptor was under 100 nM. Besides, the Ki in data set [1] was in the range of 100 to 1000 nM.
For `CCCCN1N=C(c2ccc3c(c2)CCN(C2CCC2)CC3)CCC1=O` [Example 13, 2-Butyl-6-(3-cyclobutyl-2,3,4,5-tetrahydro-1H-benzo[d]azepin-7-yl)-4,5-dihydro-2H-pyridazin-3-one], the melting point is 104 to 105 °C. Besides, the Ki on human H3 receptor is under 100 nM. Moreover, in data set [1], the Ki was under 100 nM.
Regarding `CC(C)CN1N=C(c2ccc3c(c2)CCN(C2CCC2)CC3)CCC1=O` [Example 15, 6-(3-Cyclobutyl-2,3,4,5-tetrahydro-1H-benzo[d]azepin-7-yl)-2-isobutyl-4,5-dihydro-2H-pyridazin-3-one], the melting point is 134 to 135 °C. Moreover, on human H3 receptor, the Ki was under 100 nM. In addition, in data set [1], the Ki was in the range of 100 to 1000 nM.
For `O=C1CCC(c2ccc3c(c2)CCN(C2CCC2)CC3)=NN1CC(F)(F)F` [Example 10, 6-(3-Cyclobutyl-2,3,4,5-tetrahydro-1H-benzo[d]azepin-7-yl)-2-(2,2,2-trifluoro-ethyl)-4,5-dihydro-2H-pyridazin-3-one], in that order: 139 to 140 °C, under 100 nM and under 100 nM.
Compound `Cn1nc(-c2ccc3c(c2)CCN(C2CCC2)CC3)ccc1=O` [Example 21, 6-(3-Cyclobutyl-2,3,4,5-tetrahydro-1H-benzo[d]azepin-7-yl)-2-methyl-2H-pyridazin-3-one] had a melting point of 287 to 288 °C. Also, on human H3 receptor, the Ki is under 100 nM. Besides, the Ki in data set [1] is under 100 nM.
As to `Cn1nc(-c2ccc(Oc3ccc4c(c3)CCN(C3CCC3)CC4)nc2)ccc1=O` [Example 26, 6-[6-(3-Cyclobutyl-2,3,4,5-tetrahydro-1H-benzo[d]azepin-7-yloxy)-pyridin-3-yl]-2-methyl-2H-pyridazin-3-one], the melting point was 134 to 137 °C. The Ki at human H3 receptor was under 100 nM. Further, the Ki in data set [1] is under 100 nM.
Compound `O=c1ccc(-c2ccc(Oc3ccc4c(c3)CCN(C3CCC3)CC4)nc2)nn1-c1ccccn1` [Example 28, 6-[6-(3-Cyclobutyl-2,3,4,5-tetrahydro-1H-benzo[d]azepin-7-yloxy)-pyridin-3-yl]-2-pyridin-2-yl-2H-pyridazin-3-one] registered a melting point of 178 to 182 °C. Further, on human H3 receptor, the Ki was under 100 nM. Besides, the Ki in data set [1] was under 100 nM.
Turning to `O=c1ccc(-c2ccc(Oc3ccc4c(c3)CCN(C3CCC3)CC4)nc2)n[nH]1` [Example 27, 6-[6-(3-Cyclobutyl-2,3,4,5-tetrahydro-1H-benzo[d]azepin-7-yloxy)-pyridin-3-yl]-2H-pyridazin-3-one], the melting point is 215 to 220 °C. Also, the Ki at human H3 receptor was under 100 nM. The Ki in data set [1] is under 100 nM.
